Data set [1] relates to S. mansoni schistosomulae. The data set is described as follows: Phenotypic primary screen assay on schistosomulae (phenotype; viability by methylene blue dye exclusion). The conditions noted are these: for effect on viability of schistosomulae in words: 24 h incubation, five days; for Phenotype: three-day-old schistosomulae, 10 μM, 24 h, estimated 5 days post compound exposure. The class given is cell-based, Schistosoma mansoni. A digest of the protocol: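 Parasites lacking contraction/relaxation cycles and showing dark internal granulations counted as dead. Movement and body shape were compared with DMSO-treated controls under a stereo microscope at 24 h and at five days of exposure. Larvae came from infected snails shed under light for 2 h at 32 °C.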

For the next data set, the system named is S. mansoni adult worms. The data set is described as follows: Motility assay on adult parasites (pixel displacement, relative to DMSO control). The class given is cell-based, Schistosoma mansoni. The conditions noted are these: 10 μM; for motility phenotype in words: adults, long-term after washout. A digest of the protocol:
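Unpaired adult worms from mice 6 weeks post-infection kept in OPTI-MEM with 5% dialyzed FBS and exposed to compounds at 1 and 10 μM for 24 h. Motility filmed 1 min at 10 frames/s, quantified by pixel displacement versus DMSO-treated worms; recovery followed up to five days after washout.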

Another data set relates to schistosomes. The arrangement: method as in de Almeida et al., 2016. The conditions noted are these: 12.5–100 μM; ref de Almeida et al., 2016; cited from earlier work.
For data set [2], the system named is S. mansoni schistosomulae. Briefly: Phenotypic primary screen assay on schistosomulae (phenotype; viability by methylene blue dye exclusion). The class given is cell-based. The conditions noted are these: Schistosoma mansoni; three-day-old schistosomulae, 10 μM, 24 h; calculated 5 days post compound exposure; read-out: Viability (%).
Data set [3] relates to S. mansoni schistosomulae. Briefly: Motility assay on schistosomulae (pixel displacement, relative to DMSO control). The conditions noted are these: for activity at 1 µM: Schistosoma mansoni, read-out: Fractional motility. The class given is cell-based, Schistosoma mansoni. In outline: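 Mechanically transformed S. mansoni schistosomulae (200/well) in Opti-MEM with 5% dialyzed FBS were exposed to compounds at 1 and 10 μM for 24 h at 37 °C, 5% CO2. Motility filmed at 10 frames/s for 1 min and quantified by pixel displacement relative to DMSO-treated controls.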

For data set [4], the system named is schistosomulae. The arrangement: method as in El-Sakkary et al., 2018. The conditions noted are these: 20 min exposure, 10 μM; ref El-Sakkary et al., 2018; cited from earlier work.
Data set [5] deals with schistosomulae. On the set-up: method as in Panic et al., 2015b. The following applies: 72 h incubation at 10 μM; ref Panic et al., 2015b; cited from earlier work.
The next data set addresses SmD2 (Schistosoma mansoni, UniProt G4LUJ1). The data set is described as follows: cell-based. The class given is cell-based.
Details of data set [6]: method as in Rybczynska et al., 2006. The following applies: 1 mg/kg, normotensive rats; ref Rybczynska et al., 2006; cited from earlier work.
A further data set has as its system human CaSR. On the set-up: method as in Nemeth et al., 2001. The conditions noted are these: ref Nemeth et al., 2001; cited from earlier work.
Setting [7] is: secondary screen, D1, Female adult worms.
Where [8] appears, read: secondary screen, D1, Male adult worms.
[9] abbreviates: secondary screen, D5, Female adult worms.
The mark [10] stands for this setting: secondary screen, D5, Male adult worms.
[11] abbreviates: 120 h, schistosomulae, secondary screen, 24h exposure, read at D5, 1 µM.
The mark [12] stands for this setting: schistosomulae, secondary screen, 24h exposure, read at D1, 1 µM.
[13] abbreviates: schistosomulae, 1h exposure, read at D1, 10 µM.
The mark [14] stands for this setting: schistosomulae, 1h exposure, read at D5, 10 µM.
Where [15] appears, read: schistosomulae, 3h exposure, read at D1, 10 µM.
Where [16] appears, read: schistosomulae, 3h exposure, read at D5, 10 µM.
The mark [17] stands for this setting: schistosomulae, 6h exposure, read at D1, 10 µM.
The mark [18] stands for this setting: schistosomulae, secondary screen, 24h exposure, read at D1, 10 µM.
The mark [19] stands for this setting: schistosomulae, secondary screen, 24h exposure, read at D5, 10 µM.

Where two headings read alike, the source gives them in different places.

Sequence of SmD2 (G4LUJ1 entry or part of it): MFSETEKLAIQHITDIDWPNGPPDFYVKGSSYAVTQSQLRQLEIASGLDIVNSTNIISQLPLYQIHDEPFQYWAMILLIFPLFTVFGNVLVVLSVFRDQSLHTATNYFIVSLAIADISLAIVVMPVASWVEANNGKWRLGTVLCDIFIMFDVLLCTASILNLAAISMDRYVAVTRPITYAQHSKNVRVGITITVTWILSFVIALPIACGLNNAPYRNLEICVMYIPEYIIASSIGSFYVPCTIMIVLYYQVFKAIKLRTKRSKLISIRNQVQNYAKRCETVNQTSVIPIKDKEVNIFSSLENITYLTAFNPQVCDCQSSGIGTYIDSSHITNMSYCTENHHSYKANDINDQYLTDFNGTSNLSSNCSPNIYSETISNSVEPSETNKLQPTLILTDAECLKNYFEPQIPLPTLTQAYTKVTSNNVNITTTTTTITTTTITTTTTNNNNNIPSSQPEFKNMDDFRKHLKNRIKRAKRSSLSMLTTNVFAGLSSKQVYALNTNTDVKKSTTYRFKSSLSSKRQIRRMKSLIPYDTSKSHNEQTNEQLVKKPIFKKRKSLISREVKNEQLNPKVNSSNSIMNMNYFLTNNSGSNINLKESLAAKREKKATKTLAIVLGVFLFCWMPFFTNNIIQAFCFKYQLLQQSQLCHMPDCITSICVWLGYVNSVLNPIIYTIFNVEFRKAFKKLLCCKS

Regarding `C=C1C(=O)O[C@H]2[C@H]1CC/C(C)=C/CC[C@@]1(C)O[C@@H]21` [(-)-Parthenolide], the “effect on viability of schistosomulae in words” value (“effect on viability” below) in data set [1] is reported as “total schistosomulicid action”. Moreover, the Phenotype entry in [1] was “big, dark, granulated”. Besides, the hypomotility in the data set with S. mansoni adult worms (adult male and female parasites, long-term) is on record as 49.5%. For the same compound, the “motility phenotype in words” value in the data set on S. mansoni adult worms is recorded as “severely paralyzed adults”. In addition, the Fractional motility is on record as -0.36 in the data set on S. mansoni adult worms (setting [7]); 0.14 in the data set with S. mansoni adult worms (setting [8]); -0.65 with S. mansoni adult worms (setting [9]); -0.34 in the data set on S. mansoni adult worms (setting [10]); -0.61 in data set [3] (setting [13]); -0.72 in data set [3] (setting [14]). In addition, the Fractional motility in [3] (setting [15]) is reported as -0.27; in data set [3] (setting [16]) it was -0.10; in [3] (setting [17]), 3.66; in data set [3] (schistosomulae, 6h exposure, read at D5, 10 µM), -0.86; in data set [3] (setting [18]) it was 0.67; in [3] (setting [19]), -0.99. In addition, the mortality with schistosomes was 100%. The viability at 10 µM in data set [2] was 0%. For the same compound, the activity at 1 µM in data set [3] (setting [11]) is -16%; in data set [3] (setting [12]) it was -3%.

`CN(C)CCCN1c2ccccc2Sc2ccc(Cl)cc21` [Chlorpromazine]: the Phenotype result in data set [1] was “elongated”. Besides, the Fractional motility with S. mansoni adult worms (setting [7]) is given as 0.57; in the data set on S. mansoni adult worms (setting [8]), 2.38; in the data set on S. mansoni adult worms (setting [9]) it was -0.45; in the data set on S. mansoni adult worms (setting [10]), 0.24; in data set [3] (setting [18]) it was 13.78; in data set [3] (setting [19]), 3.15. For the same compound, the viability at 10 µM in data set [2] was 96%. Moreover, the “hypermotility compared to control schistosomulae” value in [3] (10 μM) was greater than 10 fold. Besides, the results for the activity at 1 µM in [3] (setting [11]) and in data set [3] (setting [12]) were 95% and 785%, respectively. The “peak motility relative to control schistosomulae” value in the data set with schistosomulae [4] is recorded as “exceeding 50 fold”.

For the compound `COC(=O)C1=C(C)NC(C)=C(C(=O)OCCN2CCN(C(c3ccccc3)c3ccccc3)CC2)C1c1cccc([N+](=O)[O-])c1` (centres unmarked) [Manidipine], in [1], the “effect on viability” value is “no larval mortality was observed”. Further, the Phenotype entry in data set [1] is on record as “abnormal morphology, big, granulated”. Besides, the “motility phenotype in words” value with S. mansoni adult worms is “strongly impaired movement”. Also, the Fractional motility is given as 0.19 in the data set on S. mansoni adult worms (setting [7]); -0.20 with S. mansoni adult worms (setting [8]); -0.91 in the data set on S. mansoni adult worms (setting [9]); -0.98 in the data set with S. mansoni adult worms (setting [10]); -0.94 in data set [3] (setting [13]); -0.59 in data set [3] (setting [14]). Further, the Fractional motility in [3] (setting [15]) is given as -0.33; in [3] (setting [16]), -0.75; in data set [3] (setting [17]) it was -0.74; in [3] (setting [18]), -0.78; in data set [3] (setting [19]), -0.85. Further, the “activity on schistosomulae in words” value in the data set on schistosomulae [5] was “schistosomulicidal”. The viability at 10 µM in data set [2] was 97%. Further, the activity at 1 µM in data set [3] (setting [11]) is -59%; in [3] (setting [12]), -79%. Further, the hypomotility in data set [3] (schistosomulae, all tested concentrations until five days after drug washout) was no less than 59%. For the same compound, the “motility in extended assay with reduced incubation times, in words” value in [3] (three-day old schistosomulae, incubation 1 h, 3 h, 6 h) is “significant and sustained hypomotility”.

As for `CC(C)(Cc1ccc2ccccc2c1)NC[C@@H](O)COc1cccc(Cl)c1C#N` [NPS-2143], the “effect on viability” value in data set [1] was “no effect on viability”. Moreover, in data set [1], the Phenotype entry is reported as “big, granulated”. The Fractional motility in the data set on S. mansoni adult worms (adult female worms, D1) was -0.33; in the data set on S. mansoni adult worms (adult female worms, D5), -0.92; in the data set on S. mansoni adult worms (adult male worms, D1), -0.52; in the data set with S. mansoni adult worms (adult male worms, D5) it was -0.30; with S. mansoni adult worms (setting [7]) it was -0.33; in the data set on S. mansoni adult worms (setting [8]), -0.52. Besides, the Fractional motility in the data set on S. mansoni adult worms (setting [9]) was -0.92; with S. mansoni adult worms (setting [10]) it was -0.30; in data set [3] (1h, D1, 10 µM) it was -0.86; in data set [3] (1h, D5, 10 µM), -0.00164; in [3] (3h, D1, 10 µM), 0.27; in data set [3] (3h, D5, 10 µM), -0.84. Moreover, the Fractional motility is 14.69 in [3] (6h, D1, 10 µM); -0.27 in [3] (6h, D5, 10 µM); -0.50 in data set [3] (NPS-2143 and analogs, 24h, D1, 1 µM); 49.26 in data set [3] (NPS-2143 and analogs, 24h, D1, 10 µM); -0.09 in data set [3] (NPS-2143 and analogs, 24h, D5, 1 µM); -0.99 in data set [3] (NPS-2143 and analogs, 24h, D5, 10 µM). In addition, the Fractional motility was 49.26 in [3] (Selleckchem customized library secondary screen, 24h, D1, 10 µM) and -0.99 in [3] (Selleckchem customized library secondary screen, 24h, D5, 10 µM). In addition, on SmD2 (HEK293, SmD2 cells, 10 μM compound, 50 μM EPN, read-out: inhibition of EPN-evoked luminescence), the inhibition at 10 µM came to 91.1%. In addition, the half-maximal inhibitory concentration (IC50) is 2.53 ± 0.28 nM at SmD2 (inhibition of EPN-evoked luminescence, concentration-response assay, read-out: IC50) and 43 nM in the data set with human CaSR. Further, the “effect on blood pressure” value in [6] was “significantly increases blood pressure”. Further, in data set [2], the viability at 10 µM was 82%. Moreover, the activity at 1 µM was -9% in [3] (120 h, Selleckchem customized library secondary screen, 24h, D5, 1 µM) and -50% in data set [3] (Selleckchem customized library secondary screen, 24h, D1, 1 µM). In [3] (schistosomulae, after 24 h incubation), the “hypermotility relative to control” value is reported as “up to 50 fold”. For the same compound, the “motility phenotype in words” value in data set [3] (schistosomulae, long-term, five days after compound washout) was “complete paralysis”.

As a reminder, the mortality is the share of the test organisms that died. The viability is the share of living cells, or the viability signal relative to a control. In general, inhibition refers to how much of the control response was suppressed. The term IC50 denotes the concentration at which inhibition is half-maximal.

These data come from PMC7284125, “Identification of annotated bioactive molecules that impair motility of the blood fluke Schistosoma mansoni” (International Journal for Parasitology: Drugs and Drug …, 2020).
